Results: publication PMC11697113, “The Hsc70 system maintains the synaptic SNARE protein SNAP-25 in an assembly-competent state and delays its aggregation [drawing 1]” (The Journal of Biological Chemistry, 2024)

Legend:
[1] = tested on: V438F Hsc70; experiment: ATPase activity of V438F Hsc70; format: biochemical, human; details: V438F Hsc70 2 μM, peptide 200 μM; binding site blocked; three independent experiments (Fig. S3)
From the text: Hsp70s consist of an nucleotide-binding domain (NBD) and a substrate-binding domain (SBD). Hsc70 works using an allosteric mechanism whereby substrate binding at the SBD stimulates the ATP hydrolysis rate at the nucleotide-binding domain. The basal ATPase rate of Hsp70 is low, usually about 0.05 ± 0.009 mol Pi/mol protein, and increases when it is stimulated by binding of a peptide to the canonical site in the SBD. We measured the ability of SNAP-25 peptides SNNP and SNCP to stimulate the ATPase rate of Hsc70 (Fig. 5A). SNNP and SNCP binding cause a 1.5-fold increase of the Hsc70 ATPase rate over basal (observed rates upon addition of SNNP and SNCP were 0.089 ± 0.008 and 0.080 ± 0.005, respectively). In order to confirm that peptides are indeed binding at the canonical binding site of Hsc70, we used the V438F mutant that blocks the binding site ([37]). […] The addition of CSPαJ stimulates the ATPase activity of Hsc70 ∼4-fold with and without peptides.
We performed ATPase assays to observe the activity of Hsc70 in the presence of SNAP25 peptides. Hsc70 (2 μM) and peptide (200 μM) were incubated in HMK buffer with 1 mM DTT for 15 min followed by addition of 1 mM ATP and incubation at 37 °C for 1 h. […] Absorbance readings were taken at 620 nm using a BioTek plate reader. […]

[2] = target: T1, Hsc70 (Homo sapiens, UniProt P11142); experiment: Methyl-TROSY NMR of Ile-13CH3-labeled Hsc70 with peptides; format: binding; details: Ile-13CH3 Hsc70 40 μM, 25 °C, 600 MHz, pD 7.4
T1 construct: 6X His-tag (TEV-cleavable) (cleaved yes); made in house; host or cells: E. coli Rosetta (DE3)
Description: Figure 5 SNN and SNC peptides interact with the canonical substrate-binding site of Hsc70.A, ATPase activity of Hsc70 (2 μM) in the absence (gray) and presence of 200 μM SNNP (orange) and SNCP (green) peptides. Error bars represent the SDs from three independent experiments. B, binding of SNAP-25 (black), SNNP (orange), LoopP (blue), and SNCP (green) peptides to Hsc70 followed by competition for FITC-p5 peptide using fluorescence anisotropy. Increasing concentrations of the competitors were added to a complex of Hsc70 (5 μM) and FITC-p5 peptide (50 nM). Error bars represent SDs from three independent experiments. C, structure of the canonical substrate-binding site of human HspA1 (PDB 4po2) illustrating the location of Hsc70 residues Ile 403 and Ile 440 in red and green spheres, respectively (N.B., Hsc70 and HspA1 share […] sequence identity). The SBD is shown in gray, bound substrate in cyan sticks, and the side chain of the residue occupying the 0th position in the chaperone (“anchor residue”) in orange ball and sticks. For better visualization of the substrate-binding site, residues 512 to 613, 405 to 408, and 431 were removed in this illustration of the structure. D, the Ile region of the ^1H-^13 C HMQC spectra of Ile-^13CH3-labeled Hsc70 (40 μM) in the absence (black) and in the presence of unlabeled SNNP (orange) and SNCP (green) peptides (200 μM).
To directly observe binding of SNAP-25 peptides to Hsc70, we used methyl-TROSY NMR. We recorded the spectra of complexes between peptides containing the Hsc70 binding sites of SNAP-25 and Hsc70 selectively labeled (^1H,^13 C) at Ile δ1-methyl positions in a ^2H, ^12C background. We had previously found using the Escherichia coli Hsp70, DnaK, that the δ1-methyl chemical shifts of Ile 401 and 438, which contact the central residue of the bound peptide (anchor residue, Fig. 5C), change markedly depending on the identity of the bound anchor residue and the orientation of the peptide backbone with respect to DnaK ([38]). In Hsc70, the side chains of Ile 403 and 440 are similarly arranged with respect to the anchor residue of the bound peptide as Ile 401 and 438 are in DnaK (Fig. 5C) allowing us to use their δ1-methyl chemical shifts to assess directly how the chaperone binds to SNAP-25 peptides SNNP and SNCP. We confirmed the assignment of Ile 403 and Ile 440 chemical shifts by mutating these residues to Leu and collecting methyl-TROSY NMR spectra. The Hsp70 SBD site that binds the anchor residue (termed the 0th pocket) is most frequently occupied by Leu or Ile and less commonly by Val, Pro, or Met ([38], [39], [40], [41]). […]
NMR experiments were carried out at 25 °C on a 600 MHz Bruker Avance III spectrometer equipped with a CryoProbe. Data were processed with NMRPipe and analyzed using ccpNMR Analysis. […]

T1 sequence (P11142 whole entry): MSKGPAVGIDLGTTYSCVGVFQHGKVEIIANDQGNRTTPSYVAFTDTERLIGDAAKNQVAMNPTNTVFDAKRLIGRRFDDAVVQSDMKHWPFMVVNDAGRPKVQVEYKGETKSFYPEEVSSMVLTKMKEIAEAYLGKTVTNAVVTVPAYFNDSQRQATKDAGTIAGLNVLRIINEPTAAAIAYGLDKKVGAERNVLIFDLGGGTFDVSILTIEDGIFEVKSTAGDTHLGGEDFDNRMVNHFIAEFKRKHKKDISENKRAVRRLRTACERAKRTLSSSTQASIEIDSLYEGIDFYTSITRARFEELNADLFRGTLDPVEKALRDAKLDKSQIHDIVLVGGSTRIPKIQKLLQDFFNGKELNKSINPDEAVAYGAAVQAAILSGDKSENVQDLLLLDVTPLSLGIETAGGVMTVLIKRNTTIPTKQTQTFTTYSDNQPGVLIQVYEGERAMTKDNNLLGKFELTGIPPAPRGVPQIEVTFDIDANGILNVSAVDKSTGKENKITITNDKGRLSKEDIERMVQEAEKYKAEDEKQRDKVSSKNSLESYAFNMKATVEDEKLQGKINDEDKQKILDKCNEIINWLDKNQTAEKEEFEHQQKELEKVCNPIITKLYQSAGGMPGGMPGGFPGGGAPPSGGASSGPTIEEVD

Sequence: EREQMAISGGFIRR [SNCP, peptide … from the LOOP-SNC domain of SNAP-25]
- enhancement of V438F Hsc70 ATPase activity [1]: did not enhance its ATPase activity
- Ile 403 and 440 δ1-methyl signals on complex formation [2]: indeed shift upon complex formation
- Ile 440 chemical shift splitting (binding modes) [2]: split into two signals

Sequence: RRMLQLVEESK [SNNP, peptide … from the SNN domain of SNAP-25]
- enhancement of V438F Hsc70 ATPase activity [1]: did not enhance its ATPase activity
- Ile 403 and 440 δ1-methyl signals on complex formation [2]: indeed shift upon complex formation
- Ile 440 and 403 δ1-methyl chemical shift splitting (binding modes) [2]: split into two resonances each
